From ChEMBL document CHEMBL5523703, “Modulators for palmitoylation of proteins and small molecules” (Eur J Med Chem, 2024)
Structures can show the parent of a compound that is named as a salt. Values belong to the compound of their own block, whether it stands above or below them.

Columns and labels:
[1] = target: T1, Carnitine O-palmitoyltransferase 1, liver isoform (Rattus norvegicus, UniProt P32198); experiment: Inhibition of rat hepatocytes CPT1A; type: cell-based, Hepatocyte
T1 sequence (P32198 whole entry): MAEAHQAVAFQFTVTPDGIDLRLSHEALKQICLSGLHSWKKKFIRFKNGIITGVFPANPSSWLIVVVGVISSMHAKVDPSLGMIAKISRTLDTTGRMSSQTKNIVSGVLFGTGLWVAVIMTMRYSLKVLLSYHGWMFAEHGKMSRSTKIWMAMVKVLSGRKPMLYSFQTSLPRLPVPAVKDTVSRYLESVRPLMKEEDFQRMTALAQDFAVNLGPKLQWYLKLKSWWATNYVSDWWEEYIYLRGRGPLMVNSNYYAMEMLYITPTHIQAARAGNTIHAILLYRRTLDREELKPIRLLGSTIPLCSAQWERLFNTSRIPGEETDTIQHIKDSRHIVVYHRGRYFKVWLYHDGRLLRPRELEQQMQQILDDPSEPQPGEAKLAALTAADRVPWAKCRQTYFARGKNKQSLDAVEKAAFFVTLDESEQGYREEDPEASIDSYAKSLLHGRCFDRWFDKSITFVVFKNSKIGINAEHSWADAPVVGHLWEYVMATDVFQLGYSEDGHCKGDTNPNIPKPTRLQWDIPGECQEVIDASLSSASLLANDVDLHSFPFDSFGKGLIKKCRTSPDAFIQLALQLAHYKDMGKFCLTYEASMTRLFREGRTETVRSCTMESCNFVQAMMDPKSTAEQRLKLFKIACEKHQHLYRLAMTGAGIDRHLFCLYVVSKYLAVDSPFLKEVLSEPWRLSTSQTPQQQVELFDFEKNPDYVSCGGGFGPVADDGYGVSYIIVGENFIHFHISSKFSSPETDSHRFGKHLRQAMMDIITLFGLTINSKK

[2] = target: T2, Carnitine O-palmitoyltransferase 1, muscle isoform (Homo sapiens, UniProt Q92523); experiment: Inhibition of CPT1B (unknown origin) in KB cells; type: cell-based
T2 sequence (Q92523 whole entry): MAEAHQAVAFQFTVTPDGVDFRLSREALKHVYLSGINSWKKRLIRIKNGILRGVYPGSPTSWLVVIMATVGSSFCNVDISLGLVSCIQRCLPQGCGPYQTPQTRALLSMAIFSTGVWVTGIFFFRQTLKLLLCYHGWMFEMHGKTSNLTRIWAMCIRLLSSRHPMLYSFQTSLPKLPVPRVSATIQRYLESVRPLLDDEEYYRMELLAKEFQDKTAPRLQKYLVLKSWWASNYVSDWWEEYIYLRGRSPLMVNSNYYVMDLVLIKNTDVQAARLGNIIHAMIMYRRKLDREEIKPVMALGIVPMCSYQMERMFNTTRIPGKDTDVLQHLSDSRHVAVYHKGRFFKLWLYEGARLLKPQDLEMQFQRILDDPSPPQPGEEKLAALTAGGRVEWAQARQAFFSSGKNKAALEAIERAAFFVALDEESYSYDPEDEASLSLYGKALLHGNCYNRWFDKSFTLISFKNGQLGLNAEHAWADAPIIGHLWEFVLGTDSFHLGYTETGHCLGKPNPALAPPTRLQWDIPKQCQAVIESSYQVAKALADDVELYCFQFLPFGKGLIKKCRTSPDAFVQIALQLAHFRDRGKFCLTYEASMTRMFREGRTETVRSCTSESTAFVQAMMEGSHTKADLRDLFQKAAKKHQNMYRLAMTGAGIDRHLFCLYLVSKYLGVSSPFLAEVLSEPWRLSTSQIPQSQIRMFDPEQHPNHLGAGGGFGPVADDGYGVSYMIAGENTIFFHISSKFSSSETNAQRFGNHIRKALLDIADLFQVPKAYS

[3] = target: T2, Carnitine O-palmitoyltransferase 1, muscle isoform; experiment: Inhibition of CPT1B (unknown origin)
[4] = target: Tyrosine-protein kinase Lck (Homo sapiens, UniProt P06239); experiment: Inhibition of N-terminal human recombinant Lck expressed in baculovirus infected in Sf9 cells
[5] = target: Non-structural protein 4b (Hepacivirus hominis, UniProt F5B4I0); experiment: Inhibition of Hepatitis C virus genotype 1a NS4B
[6] = Binding affinity to SPT (unknown origin) assessed as inhibition constant; design: species or system Homo sapiens
CCF-STTG1 = experiment: Antiproliferative activity against human CCF-STTG1 cells assessed as reduction in cell growth; type: functional, cell-based
[7] = target: Palmitoyltransferase ZDHHC3 (Homo sapiens, UniProt Q9NYG2); experiment: Inhibition of ZDHHC3 (unknown origin)
[8] = target: Palmitoyltransferase ZDHHC7 (Homo sapiens, UniProt Q9NXF8); experiment: Inhibition of ZDHHC7 (unknown origin)
Homo sapiens = organism: Homo sapiens; experiment: Binding affinity to ZDHHC (unknown origin) assessed as inactivation constant
[9] = target: Transcriptional enhancer factor TEF-1 (Homo sapiens, UniProt P28347); experiment: Inhibition of N-terminal 6His-tagged human TEAD1 YAP-binding domain (209 to 426 residues) expressed in Escherichia coli BL21 (DE3)
[10] = Inhibition of N-terminal 6His-tagged human TEAD1 YAP-binding domain (219 to 435 residues) expressed in Escherichia coli BL21 (DE3)
[11] = Inhibition of SPT in mouse Neuro2a cells; type: cell-based
[12] = Inhibition of SPT (unknown origin); design: species or system Homo sapiens
[13] = target: Carnitine O-palmitoyltransferase 2, mitochondrial (Rattus norvegicus, UniProt P18886); experiment: Inhibition of rat CPT2
[14] = target: T3, Carnitine O-palmitoyltransferase 1, liver isoform (Homo sapiens, UniProt P50416); experiment: Inhibition of CPT1 (unknown origin)
T3 sequence (P50416 whole entry): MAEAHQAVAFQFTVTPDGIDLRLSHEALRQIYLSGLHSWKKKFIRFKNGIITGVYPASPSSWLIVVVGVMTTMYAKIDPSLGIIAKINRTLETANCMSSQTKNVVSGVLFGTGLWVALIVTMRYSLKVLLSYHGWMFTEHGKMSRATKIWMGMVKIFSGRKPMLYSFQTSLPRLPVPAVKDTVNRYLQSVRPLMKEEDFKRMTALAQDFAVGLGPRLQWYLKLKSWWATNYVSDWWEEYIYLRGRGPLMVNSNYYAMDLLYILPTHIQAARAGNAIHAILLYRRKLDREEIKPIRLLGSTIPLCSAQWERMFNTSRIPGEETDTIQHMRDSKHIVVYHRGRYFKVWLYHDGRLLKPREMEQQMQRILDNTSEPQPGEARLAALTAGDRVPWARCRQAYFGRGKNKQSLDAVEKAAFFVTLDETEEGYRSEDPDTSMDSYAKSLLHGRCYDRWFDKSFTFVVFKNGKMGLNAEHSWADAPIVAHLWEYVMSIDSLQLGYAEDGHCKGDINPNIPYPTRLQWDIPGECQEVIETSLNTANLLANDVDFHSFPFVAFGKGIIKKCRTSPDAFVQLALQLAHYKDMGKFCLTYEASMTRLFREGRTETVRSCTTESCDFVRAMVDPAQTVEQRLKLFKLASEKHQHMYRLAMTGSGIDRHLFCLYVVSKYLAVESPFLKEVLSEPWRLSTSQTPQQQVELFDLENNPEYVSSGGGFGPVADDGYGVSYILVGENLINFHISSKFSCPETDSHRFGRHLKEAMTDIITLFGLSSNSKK

[15] = target: Protein-cysteine N-palmitoyltransferase HHAT (Homo sapiens, UniProt Q5VTY9); experiment: Inhibition of HHAT (unknown origin)
[16] = target: Carnitine O-palmitoyltransferase 1, liver isoform (Homo sapiens) (UniProt P50416); experiment: Inhibition of CPT1 (unknown origin) at 10 uM relative to control
[17] = target: Carnitine O-palmitoyltransferase 2, mitochondrial (Homo sapiens, UniProt P23786); experiment: Inhibition of human CPT2
[18] = target: T3, Carnitine O-palmitoyltransferase 1, liver isoform; experiment: Inhibition of human CPT1
[19] = target: T3, Carnitine O-palmitoyltransferase 1, liver isoform; experiment: Binding affinity to CPT1 (unknown origin) assessed as inhibition constant
[20] = Inhibition of Candida albicans serine palmitoyltransferase

Sequence of Carnitine O-palmitoyltransferase 2, mitochondrial (Homo sapiens, UniProt P23786) (P23786 whole entry, canonical isoform): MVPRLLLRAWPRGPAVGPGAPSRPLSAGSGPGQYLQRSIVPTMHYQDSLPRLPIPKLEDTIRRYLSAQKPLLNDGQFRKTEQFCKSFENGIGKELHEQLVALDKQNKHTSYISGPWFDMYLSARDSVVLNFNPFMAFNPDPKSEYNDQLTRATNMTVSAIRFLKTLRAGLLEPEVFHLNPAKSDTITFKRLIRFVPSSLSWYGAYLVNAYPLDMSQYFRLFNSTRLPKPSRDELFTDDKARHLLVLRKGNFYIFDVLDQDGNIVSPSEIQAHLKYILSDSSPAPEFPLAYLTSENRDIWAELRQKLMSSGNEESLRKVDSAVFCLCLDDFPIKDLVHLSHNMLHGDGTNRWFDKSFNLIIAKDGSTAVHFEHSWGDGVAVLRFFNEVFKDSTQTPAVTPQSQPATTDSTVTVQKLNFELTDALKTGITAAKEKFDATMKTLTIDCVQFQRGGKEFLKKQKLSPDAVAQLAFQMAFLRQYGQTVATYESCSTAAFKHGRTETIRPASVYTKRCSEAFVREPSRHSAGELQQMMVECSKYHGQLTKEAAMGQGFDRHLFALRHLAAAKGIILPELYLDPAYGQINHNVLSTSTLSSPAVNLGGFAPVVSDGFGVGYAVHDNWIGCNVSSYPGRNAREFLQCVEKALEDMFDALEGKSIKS
Sequence of Protein-cysteine N-palmitoyltransferase HHAT (Q5VTY9 whole entry, canonical isoform): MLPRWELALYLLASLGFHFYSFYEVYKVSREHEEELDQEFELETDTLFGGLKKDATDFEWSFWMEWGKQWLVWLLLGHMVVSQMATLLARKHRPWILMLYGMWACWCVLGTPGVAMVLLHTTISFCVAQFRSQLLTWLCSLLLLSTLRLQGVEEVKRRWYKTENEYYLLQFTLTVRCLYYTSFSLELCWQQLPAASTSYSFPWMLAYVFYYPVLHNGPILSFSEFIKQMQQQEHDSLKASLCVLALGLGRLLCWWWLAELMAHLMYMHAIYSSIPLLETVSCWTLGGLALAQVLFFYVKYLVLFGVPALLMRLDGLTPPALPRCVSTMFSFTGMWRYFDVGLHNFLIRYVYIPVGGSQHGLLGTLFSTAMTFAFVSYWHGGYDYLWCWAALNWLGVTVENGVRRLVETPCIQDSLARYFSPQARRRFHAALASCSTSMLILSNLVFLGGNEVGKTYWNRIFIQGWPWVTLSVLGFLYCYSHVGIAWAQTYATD
Sequence of Palmitoyltransferase ZDHHC3 (Q9NYG2 whole entry): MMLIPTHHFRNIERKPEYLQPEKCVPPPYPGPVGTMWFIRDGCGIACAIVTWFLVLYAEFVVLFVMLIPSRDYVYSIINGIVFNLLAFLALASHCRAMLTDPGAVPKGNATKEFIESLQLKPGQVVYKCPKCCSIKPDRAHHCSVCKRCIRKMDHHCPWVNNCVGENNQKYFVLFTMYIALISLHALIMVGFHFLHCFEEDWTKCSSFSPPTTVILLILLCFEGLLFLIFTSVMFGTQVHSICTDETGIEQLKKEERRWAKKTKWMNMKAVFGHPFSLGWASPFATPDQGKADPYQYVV
Sequence of Transcriptional enhancer factor TEF-1 (P28347 whole entry, the tested form may be a part): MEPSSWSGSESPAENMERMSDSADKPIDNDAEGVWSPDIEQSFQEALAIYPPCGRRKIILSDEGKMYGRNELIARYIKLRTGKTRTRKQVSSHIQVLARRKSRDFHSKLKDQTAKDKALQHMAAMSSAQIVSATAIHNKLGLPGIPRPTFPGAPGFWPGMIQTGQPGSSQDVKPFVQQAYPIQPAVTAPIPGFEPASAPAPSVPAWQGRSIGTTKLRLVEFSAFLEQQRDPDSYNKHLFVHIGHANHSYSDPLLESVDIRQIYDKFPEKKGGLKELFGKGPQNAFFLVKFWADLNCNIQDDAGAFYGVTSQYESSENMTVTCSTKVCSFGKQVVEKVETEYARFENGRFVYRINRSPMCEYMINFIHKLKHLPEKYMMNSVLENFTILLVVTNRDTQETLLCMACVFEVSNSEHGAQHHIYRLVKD
Sequence of Non-structural protein 4b (F5B4I0 whole entry): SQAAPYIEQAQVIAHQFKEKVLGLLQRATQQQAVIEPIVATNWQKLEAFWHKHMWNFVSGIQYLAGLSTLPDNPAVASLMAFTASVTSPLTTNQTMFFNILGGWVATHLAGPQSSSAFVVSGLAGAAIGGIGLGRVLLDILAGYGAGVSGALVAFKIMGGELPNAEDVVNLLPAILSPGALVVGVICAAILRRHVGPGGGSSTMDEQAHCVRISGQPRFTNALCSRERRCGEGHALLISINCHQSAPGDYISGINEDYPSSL
Sequence of Tyrosine-protein kinase Lck (P06239 whole entry): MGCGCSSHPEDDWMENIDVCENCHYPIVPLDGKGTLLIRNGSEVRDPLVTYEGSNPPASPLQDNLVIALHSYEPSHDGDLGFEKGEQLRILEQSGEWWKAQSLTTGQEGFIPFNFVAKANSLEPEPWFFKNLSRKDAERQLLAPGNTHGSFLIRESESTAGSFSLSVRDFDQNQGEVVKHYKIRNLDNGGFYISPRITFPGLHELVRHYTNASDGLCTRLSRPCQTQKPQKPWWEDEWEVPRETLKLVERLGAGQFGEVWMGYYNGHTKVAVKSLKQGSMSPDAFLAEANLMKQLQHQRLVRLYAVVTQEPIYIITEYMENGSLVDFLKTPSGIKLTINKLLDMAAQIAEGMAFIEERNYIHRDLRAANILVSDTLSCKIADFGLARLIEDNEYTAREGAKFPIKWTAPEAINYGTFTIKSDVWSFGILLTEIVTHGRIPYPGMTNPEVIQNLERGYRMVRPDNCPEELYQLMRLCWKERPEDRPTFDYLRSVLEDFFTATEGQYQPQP
Sequence of Palmitoyltransferase ZDHHC7 (Q9NXF8 whole entry): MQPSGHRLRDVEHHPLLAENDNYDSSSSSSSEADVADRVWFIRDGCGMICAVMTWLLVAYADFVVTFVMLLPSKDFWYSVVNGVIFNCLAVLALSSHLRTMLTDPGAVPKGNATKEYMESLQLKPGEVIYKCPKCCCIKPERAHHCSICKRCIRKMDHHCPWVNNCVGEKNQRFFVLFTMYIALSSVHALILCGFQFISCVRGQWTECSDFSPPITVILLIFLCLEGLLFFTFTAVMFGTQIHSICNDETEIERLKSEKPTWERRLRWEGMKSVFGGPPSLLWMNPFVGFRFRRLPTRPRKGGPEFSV
Sequence of Carnitine O-palmitoyltransferase 2, mitochondrial (Rattus norvegicus, UniProt P18886) (P18886 whole entry, canonical isoform): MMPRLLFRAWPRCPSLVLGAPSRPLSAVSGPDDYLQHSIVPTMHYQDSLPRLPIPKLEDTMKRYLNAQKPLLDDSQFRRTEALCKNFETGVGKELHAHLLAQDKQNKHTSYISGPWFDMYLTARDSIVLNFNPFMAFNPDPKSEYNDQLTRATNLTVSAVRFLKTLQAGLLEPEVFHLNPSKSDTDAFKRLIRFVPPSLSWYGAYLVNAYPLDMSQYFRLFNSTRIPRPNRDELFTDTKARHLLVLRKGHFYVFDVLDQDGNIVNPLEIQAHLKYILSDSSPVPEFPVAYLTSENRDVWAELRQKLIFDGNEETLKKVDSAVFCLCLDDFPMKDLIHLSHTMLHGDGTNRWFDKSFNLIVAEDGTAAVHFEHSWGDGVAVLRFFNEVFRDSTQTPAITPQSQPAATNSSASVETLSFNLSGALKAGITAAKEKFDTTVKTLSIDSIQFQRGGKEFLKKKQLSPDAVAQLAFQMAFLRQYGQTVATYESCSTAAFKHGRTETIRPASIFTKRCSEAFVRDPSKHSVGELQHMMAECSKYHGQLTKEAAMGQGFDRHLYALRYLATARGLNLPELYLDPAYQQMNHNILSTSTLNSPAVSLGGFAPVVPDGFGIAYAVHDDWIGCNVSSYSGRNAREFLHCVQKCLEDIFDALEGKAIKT

- IC50 [1]: 1090 nM
- IC50 [2]: 21 nM
SMILES: COc1ccc(Cl)cc1S(=O)(=O)N1CCc2ccc(C(=O)Nc3ccc(C(=O)O)cc3)cc21

- IC50 [3]: 16.8 µM
SMILES: COc1ccc(CN2CCN(CCCSc3cc(C(C)(C)C)c(O)c(C(C)(C)C)c3)CC2)c(OC)c1OC

SMILES: CCCCCCCCCCCCCCC(Br)C(=O)O (stereo not drawn)
- IC50 [4]: 10 µM

- IC50 [5]: 18.9 nM
SMILES: CC#CCOc1ccc(C[C@H](NC(=O)[C@@H](/C=C/CCCCCCC(=O)CCCCCCC)[C@@](O)(CC(C)=O)C(=O)O)C(=O)O)cc1

- Ki [6]: 1700 nM
SMILES: C/C(=C\CC12OC(C)(C)C3CC(C=C4C(=O)c5c(O)cccc5OC431)C2=O)COC(=O)c1cccnc1 (stereo not drawn)
- IC50 (CCF-STTG1): 2290 nM

- IC50 [7]: ~50 µM
- IC50 [8]: 4.4 µM
SMILES: CCCCCCCCCCCCCCC(Br)C(=O)SCCNC(C)=O (stereo not drawn)

- Kinact (Homo sapiens): 0.83 M⁻¹ s⁻¹
SMILES: N[C@H]1CONC1=O

- IC50 [9]: 610 nM
- IC50 [10]: 580 nM
SMILES: C=CC(=O)N1CCC(CCOc2ccccc2)CC1

SMILES: CNC(=O)c1ccc2c(c1)CC(=O)N2C1CCN(CC(=O)N2CC3CCCC3C2)CC1 (stereo not drawn)
- IC50 [11]: 9.5 µM
- IC50 [12]: 27.3 nM

- IC50 [13]: 79 µM
- IC50 [14]: 11 µM
SMILES: N[C@H](C(=O)O)c1ccc(O)cc1 [OXFENICINE]

- IC50 [15]: 460 nM
SMILES: CCC(C)CNCC(=O)N1CCc2sccc2C1c1cccc(C)c1 (stereo not drawn)

- inhibition [16]: 66%
SMILES: CCCCCCCCCCCCCC[C@]1(C(=O)O)CO1

- IC50 [17]: > 100 µM
- IC50 [18]: 250 µM
SMILES: COc1cccc2c1C(=O)c1c(O)c3c(c(O)c1C2=O)C[C@@](O)(C(=O)CO)C[C@@H]3O[C@H]1C[C@H](N)[C@H](O)[C@H](C)O1 [DOXORUBICIN HYDROCHLORIDE]

- Ki [19]: 360 nM
- IC50 [14]: 0.68 µM
SMILES: CCCCCCCCCCCCCCNC(=O)N[C@H](CC(=O)[O-])C[N+](C)(C)C

- IC50 [20]: 22 nM
SMILES: CCCCCCCC(=O)CCCCCC/C=C/[C@H](C(=O)N[C@@H](Cc1ccc(O)cc1)C(=O)O)[C@@](O)(CC(=O)O)C(=O)O
